Assay results as given in the supplement of paper PMC5844555.

Key:
Test in all cases: 3' UTR reporter interaction score (median-centred robust z-score of log2 firefly/Renilla activity); higher = less repression of the 3' UTR reporter
Settings in all cases: HEK293T; 48 h
ZEB2 = test system: ZEB2
Method in brief: (§1)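 Firefly and Renilla luciferase activities were read 48 h post-transfection in HEK293T cells (10,000/well, 96-well plates). The cells had received 100 ng firefly luc2P reporter bearing the gene's 3' UTR, 20 ng Renilla pRL-TK control and 2.5 pmol miRNA mimic via DharmaFECT Duo. The interaction score, where more negative means interaction, is a per-plate robust z-score (median, median absolute deviation) of the log firefly/Renilla ratio, median-centred per miRNA and averaged over at least two independent screens.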

RB1 = test system: RB1
Method in brief: as §1

TP53 = test system: TP53
Method in brief: as §1

NOTCH1 = test system: NOTCH1
Method in brief: as §1

MYT1L = test system: MYT1L
Method in brief: as §1

BRCA2 = test system: BRCA2
Method in brief: as §1

MYC = test system: MYC
Method in brief: as §1

MYCN = test system: MYCN
Method in brief: as §1

EZH2 = test system: EZH2
Method in brief: as §1

MYB = test system: MYB
Method in brief: as §1

HRAS = test system: HRAS
Method in brief: as §1

PHOX2B = test system: PHOX2B
Method in brief: as §1

PHF6 = test system: PHF6
Method in brief: as §1

FBXW7 = test system: FBXW7
Method in brief: as §1

| Sequence | 3' UTR reporter interaction score (ZEB2) | 3' UTR reporter interaction score (RB1) | 3' UTR reporter interaction score (TP53) | 3' UTR reporter interaction score (NOTCH1) | 3' UTR reporter interaction score (MYT1L) | 3' UTR reporter interaction score (BRCA2) | 3' UTR reporter interaction score (MYC) | 3' UTR reporter interaction score (MYCN) | 3' UTR reporter interaction score (EZH2) | 3' UTR reporter interaction score (MYB) | 3' UTR reporter interaction score (HRAS) | 3' UTR reporter interaction score (PHOX2B) | 3' UTR reporter interaction score (PHF6) | 3' UTR reporter interaction score (FBXW7) |
| --- | --- | --- | --- | --- | --- | --- | --- | --- | --- | --- | --- | --- | --- | --- |
| UCCAGCUCCUAUAUGAUGCCUUU | -2.75 | -0.767 | 0.0762 | -1.09 | -1.49 | 0.152 | 0.624 | -0.396 | 0.255 | 0.963 | -0.216 | -0.208 | -0.704 | 0.91 |
| UCCAGUACCACGUGUCAGGGCCA | 0.742 | 0.837 | -0.171 | 0.223 | 0.747 | 0.581 | -0.893 | -3.01 | -1.44 | 0.593 | 0.159 | 0.294 | -0.805 | -1.35 |
| UCCCACGUUGUGGCCCAGCAG | -0.736 | -2.41 | 0.863 | 0.591 | -0.668 | 0.793 | 0.28 | -0.504 | 0.303 | -0.00342 | -0.421 | -0.461 | 0.0798 | -0.0713 |
| UCCCUGAGACCCUAACUUGUGA | 1.05 | -0.398 | -1.15 | -0.154 | 0.796 | 1.7 | 1.24 | 0.264 | 0.82 | -0.19 | 1.12 | -1.65 | 0.386 | -0.252 |
| UCCCUGAGACCCUUUAACCUGUG | 0.152 | 0.0838 | -3.91 | -0.719 | 0.364 | 0.772 | 0.131 | -0.334 | 1.1 | -0.228 | 1.12 | -2.78 | 1.62 | -0.449 |
| UCCCUGUCCUCCAGGAGCUCA | -0.151 | -0.85 | 0.159 | -0.622 | -0.918 | -0.604 | 0.568 | 0.194 | 0.643 | 0.312 | 0.998 | -1.29 | -1.54 | 0.105 |
| UCCGAGCCUGGGUCUCCCUCU | -0.318 | 0.559 | 0.107 | 0.141 | 1.66 | 0.0314 | -0.43 | -0.731 | 0.213 | -0.402 | -0.0807 | 1.22 | -0.194 | 0.832 |
| UCCGUCUCAGUUACUUUAUAGCC | -2.24 | 0.307 | 1.13 | -0.0124 | -0.738 | 1.46 | 0.0204 | -0.29 | 0.571 | -1.75 | -0.357 | -0.906 | 2.5 | -1.56 |
| UCCUGUACUGAGCUGCCCCGAG | -2.27 | -2.81 | -0.164 | -0.221 | -1.49 | -2.39 | -0.142 | 0.364 | 0.519 | -1.33 | 0.706 | 1.42 | -0.91 | 0.155 |
| UCCUUCAUUCCACCGGAGUCUG | -2.53 | 0.813 | -0.464 | -0.263 | 1.34 | -0.488 | 1.16 | 0.466 | 0.832 | 1.93 | -1.28 | -0.547 | 0.83 | -0.512 |
| UCGGAUCCGUCUGAGCUUGGCU | 0.123 | -0.185 | -0.412 | 0.076 | -1.06 | 1.24 | -0.287 | 1.3 | 1.84 | -4.97 | 1.22 | -0.526 | -0.555 | 0.968 |
| UCGGGGAUCAUCAUGUCACGAG | 1.06 | 1.06 | -0.0214 | -0.696 | -0.88 | 0.268 | -1.16 | -0.0751 | -0.077 | -0.226 | -0.912 | 0.234 | 1.52 | 0.568 |
| UCGUACCGUGAGUAAUAAUGC | 0.34 | -1.12 | 0.516 | -1.54 | -0.417 | 0.63 | -0.268 | 0.512 | 0.753 | -2.72 | -0.495 | -1.05 | 1.63 | -0.162 |
| UCGUGCAUCCCUUUAGAGUGUU | -1.93 | 1.71 | -0.886 | -0.139 | -0.28 | 0.369 | -0.38 | 1.34 | 0.153 | -1.1 | -0.817 | -0.719 | 2.24 | 0.538 |
| UCGUGUCUUGUGUUGCAGCCG | 0.403 | -0.468 | -0.142 | -0.0902 | -0.0239 | -0.341 | -0.116 | 0.852 | 0.0252 | 0.669 | -0.272 | -0.401 | -0.112 | -0.364 |
| UCUACAAAGGGAAGCCCUUUCUG | -0.71 | 0.712 | -0.365 | -0.427 | 0.66 | 0.423 | -0.127 | 0.12 | 0.229 | 0.56 | -0.0822 | -0.778 | 0.0225 | -0.547 |
| UCUACAGUGCACGUGUCU | 0 | 0.634 | 0.119 | -0.268 | 0.894 | -0.808 | -0.224 | 0.872 | -0.132 | 0.507 | -0.193 | 1.13 | -1.18 | -0.208 |

| Sequence | 3' UTR reporter interaction score (ZEB2) | 3' UTR reporter interaction score (RB1) | 3' UTR reporter interaction score (TP53) | 3' UTR reporter interaction score (NOTCH1) | 3' UTR reporter interaction score (MYT1L) | 3' UTR reporter interaction score (BRCA2) | 3' UTR reporter interaction score (MYC) | 3' UTR reporter interaction score (MYCN) | 3' UTR reporter interaction score (EZH2) | 3' UTR reporter interaction score (MYB) | 3' UTR reporter interaction score (HRAS) | 3' UTR reporter interaction score (PHOX2B) | 3' UTR reporter interaction score (PHF6) | 3' UTR reporter interaction score (FBXW7) |
| --- | --- | --- | --- | --- | --- | --- | --- | --- | --- | --- | --- | --- | --- | --- |
| UCUAGGCUGGUACUGCUGA | 0.447 | -0.812 | 0.681 | -0.326 | 0.751 | -0.172 | -0.9 | 0.628 | -0.385 | 0.874 | -0.226 | -0.185 | -0.473 | 0.217 |
| UCUAGUAAGAGUGGCAGUCG | 0.627 | -1.19 | 0.771 | 0.0614 | -0.214 | 0.0816 | -0.209 | -0.229 | -0.108 | 0.506 | -0.21 | 1.81 | 0.233 | 1.23 |
| UCUCCCAACCCUUGUACCAGUG | 0.808 | -0.714 | -0.706 | -0.369 | 0.779 | 0.0345 | 0.62 | 0.5 | 0.195 | -6.53 | 0.137 | -0.32 | 0.168 | -1.26 |
| UCUCUGGAGGGAAGCACUUUCUG | -2.97 | -0.609 | 0.306 | -2.09 | -1.64 | 1.47 | 0.317 | -0.393 | 1.18 | -1.99 | -0.075 | -0.501 | 1.92 | 0.444 |
| UCUGGCUCCGUGUCUUCACUCC | 1.83 | 0.119 | 0.211 | -2.05 | 1.3 | 0.156 | -0.629 | 1.42 | 0.8 | -1.3 | 1.54 | 1.22 | -0.567 | -0.481 |
| UCUUGGAGUAGGUCAUUGGGUGG | 1.13 | -0.403 | 0.12 | -0.846 | -0.548 | 0.0799 | 0.457 | -0.819 | 0.166 | -0.086 | 1.18 | -1.26 | 1.13 | -2.32 |
| UCUUGUGUUCUCUAGAUCAGU | 0.366 | 0.632 | -0.0759 | -0.00434 | -0.612 | 0.0649 | -0.281 | 0.747 | 0.661 | 0.224 | 0.641 | -1.16 | -1.56 | -0.787 |
| UCUUUGGUUAUCUAGCUGUAUGA | 0.948 | 0.127 | -1.13 | -0.836 | -0.093 | -0.397 | -0.165 | -0.305 | 0.57 | -0.0519 | 0.757 | -0.756 | 0.471 | 0.588 |
| UGAAACAUACACGGGAAACCUCUU | 0.135 | -0.893 | -0.757 | 2.03 | 0.0487 | 0.436 | -4.26 | -2.74 | 0.948 | -0.521 | -0.108 | -0.468 | 2.68 | 1.59 |
| UGAAGGUCUACUGUGUGCCAG | 0.194 | -1.18 | 1.34 | -0.37 | -2.06 | -0.173 | -0.0308 | 0.394 | 0.277 | 0.992 | -0.000203 | 0.626 | -1.33 | 0.56 |
| UGACAACUAUGGAUGAGCUCU | 0.125 | -2.61 | 0.025 | -0.339 | 0.836 | -0.499 | 0.174 | 0.478 | 0.197 | 0.977 | -0.056 | -0.766 | -0.469 | 0.175 |
| UGAGAACUGAAUUCCAUAGGCU | 0.486 | -0.182 | -0.401 | -0.287 | 0.753 | -1.45 | 0.179 | 0.165 | 0.351 | 0.897 | -0.193 | -0.835 | 0.668 | -1.39 |
| UGAGAACUGAAUUCCAUGGGUU | 1.41 | -0.62 | -0.136 | -0.245 | 0.806 | -1.66 | -0.0139 | 0.702 | 0.673 | 1.11 | -0.164 | -1.1 | 1.46 | -0.989 |
| UGAGACCUCUGGGUUCUGAGCU | 1.27 | 0.176 | -1.24 | 0.17 | 0.762 | -3.69 | 0.551 | 0.725 | 1.01 | -1.3 | -0.0086 | -0.781 | -0.429 | 0.371 |
| UGAGAUGAAGCACUGUAGCUCA | 0.313 | -0.192 | -0.632 | 0.298 | -0.193 | 1.09 | 0.59 | 0.577 | -0.134 | 0.448 | 0.321 | -0.89 | -0.896 | 0.851 |
| UGAGCUAAAUGUGUGCUGGGA | 0.263 | -0.0745 | 0.237 | -0.446 | 1.13 | -0.453 | -0.176 | 0.0799 | 0.105 | 0.373 | -0.575 | 0.175 | -0.0551 | -0.406 |
| UGAGCUGCUGUACCAAAAU | 0.288 | 0.104 | -0.00622 | 0.526 | 0.273 | -0.363 | -0.354 | -1.43 | -0.391 | -0.26 | -0.0544 | 1.09 | 0.476 | 0.267 |
